Consider 38 molecules from patent US10604523B2, “1-aryl-4-methyl-[1,2,4]triazolo[4,3-a]quinoxaline derivatives” (Janssen Pharmaceutica NV, priority 2011, dated 2020).

Read-outs that look alike come from different tables or passages of the source.

For assay [1], the target named is T1, Rat recombinant PDE10A (rPDE10A2) (Rattus norvegicus, UniProt Q9QYJ6).
T1 construct: made in house; host or cells: Sf9 insect cells (baculovirus)
T1 sequence (Q9QYJ6 1-794): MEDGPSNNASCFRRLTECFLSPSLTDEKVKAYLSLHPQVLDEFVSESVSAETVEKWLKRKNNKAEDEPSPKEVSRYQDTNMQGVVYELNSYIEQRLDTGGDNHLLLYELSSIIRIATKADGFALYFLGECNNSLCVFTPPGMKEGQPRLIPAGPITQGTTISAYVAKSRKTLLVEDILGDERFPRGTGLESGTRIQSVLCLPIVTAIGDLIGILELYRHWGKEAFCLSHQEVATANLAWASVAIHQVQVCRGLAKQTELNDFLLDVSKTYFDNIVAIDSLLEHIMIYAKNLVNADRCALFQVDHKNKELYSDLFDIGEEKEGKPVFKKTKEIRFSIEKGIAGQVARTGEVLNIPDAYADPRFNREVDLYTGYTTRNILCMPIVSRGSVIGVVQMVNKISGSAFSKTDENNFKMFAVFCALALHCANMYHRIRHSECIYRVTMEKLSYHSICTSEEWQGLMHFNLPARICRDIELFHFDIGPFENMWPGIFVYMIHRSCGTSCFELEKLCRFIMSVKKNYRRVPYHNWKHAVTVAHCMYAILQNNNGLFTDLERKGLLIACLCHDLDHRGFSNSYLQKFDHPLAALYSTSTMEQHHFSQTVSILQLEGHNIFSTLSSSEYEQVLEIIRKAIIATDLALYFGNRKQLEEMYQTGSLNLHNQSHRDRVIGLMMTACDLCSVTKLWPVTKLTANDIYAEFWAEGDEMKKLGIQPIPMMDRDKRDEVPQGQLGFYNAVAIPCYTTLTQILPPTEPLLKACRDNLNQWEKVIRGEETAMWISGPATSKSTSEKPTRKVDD
The experiment in a line: In vitro assay PDE10A (SPA, 3H-cAMP). The assay is classed as biochemical. The conditions noted are these: for IC50: read-out: PIC50 PDE10 (converted).

Assay [2] deals with T2, Human recombinant PDE2A (hPDE2A) (Homo sapiens, UniProt O00408).
T2 construct: made in house; host or cells: Sf9 insect cells (baculovirus)
The assay is described as follows: In vitro assay PDE2A (SPA, 3H-cGMP). The assay is classed as biochemical. The conditions noted are these: read-out: pIC50 PDE2 (converted).

The subject of assay [3] is Apomorphine-induced agitation. The assay is described as follows: Reversal of Apomorphine-induced Agitation in Rats (APO). The assay is classed as in vivo, rat. The note with it: for PO Max effect (cumulative agitation score over 60 min) / SC Max effect (cumulative agitation score over 60 min): apomorphine 1.0 mg/kg i.v.; for PO LAD (lowest active dose) / SC LAD (lowest active dose): lowest dose at which ≥67% tested animals respond; for SC Dose at max effect / SC Max effect (cumulative agitation score over 60 min) / SC LAD (lowest active dose): subcutaneous route.
Experimental: Apomorphine (1.0 mg/kg, i.v.)-induced agitation was scored every 5 min over the first hour after injection of apomorphine. The score system was: (3) pronounced, (2) moderate, (1) slight, and (0) absent. […] For the present purpose, the cumulative agitation score over the whole 60-min observation period was used as a measure to describe the maximum effect (Max effect).

Where [4] appears, read: -log IC50 expressed in mol/L, rPDE10A2, 60 nM cAMP.

T2 sequence (O00408 whole entry): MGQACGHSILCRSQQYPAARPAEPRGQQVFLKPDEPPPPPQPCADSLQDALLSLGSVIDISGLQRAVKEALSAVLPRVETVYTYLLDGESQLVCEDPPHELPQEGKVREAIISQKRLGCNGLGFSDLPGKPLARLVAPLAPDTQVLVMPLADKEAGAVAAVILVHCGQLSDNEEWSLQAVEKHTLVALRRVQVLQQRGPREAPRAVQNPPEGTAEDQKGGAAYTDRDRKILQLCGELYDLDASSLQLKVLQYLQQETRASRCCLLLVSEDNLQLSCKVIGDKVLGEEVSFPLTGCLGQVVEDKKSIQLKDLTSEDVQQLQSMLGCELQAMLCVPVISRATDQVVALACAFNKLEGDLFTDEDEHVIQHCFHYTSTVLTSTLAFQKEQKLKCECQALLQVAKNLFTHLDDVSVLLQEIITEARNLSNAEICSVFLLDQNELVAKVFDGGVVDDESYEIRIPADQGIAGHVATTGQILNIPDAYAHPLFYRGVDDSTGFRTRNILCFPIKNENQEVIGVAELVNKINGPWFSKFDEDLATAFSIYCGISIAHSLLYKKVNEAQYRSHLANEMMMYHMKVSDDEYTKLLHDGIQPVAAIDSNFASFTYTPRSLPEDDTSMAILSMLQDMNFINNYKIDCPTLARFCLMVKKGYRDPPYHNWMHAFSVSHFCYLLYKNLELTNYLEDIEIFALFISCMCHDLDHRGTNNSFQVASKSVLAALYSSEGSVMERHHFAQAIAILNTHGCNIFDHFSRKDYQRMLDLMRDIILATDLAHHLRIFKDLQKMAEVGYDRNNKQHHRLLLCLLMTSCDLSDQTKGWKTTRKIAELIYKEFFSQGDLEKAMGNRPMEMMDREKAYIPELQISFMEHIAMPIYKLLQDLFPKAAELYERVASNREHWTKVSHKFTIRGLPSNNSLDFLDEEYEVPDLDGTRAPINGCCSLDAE

For the molecule `CCCCOc1cncc(-c2nnc3c(C)nc4ccc(CN5CCCC5)cc4n23)c1` [Compound B-206], the figures for the IC50 in assay [1] and in assay [2] were greater than 10000 nM and 135 nM, respectively.

Take `COc1cncc(-c2nnc3c(C)nc4ccc(C(F)(F)F)cc4n23)c1` [Compound B-163]: the IC50 is 1150 nM in assay [1] and 69.2 nM in assay [2].

Consider `Cc1nc2ccc(CN3CCC(F)CC3)cc2n2c(-c3cc(OC(C)C)ccc3Cl)nnc12` [Compound B-134], for which the figures for the IC50 in assay [1] and in assay [2] were 1100 nM and 30.2 nM, respectively.

Take `Cc1nc2ccc(CN3CCC(N(C)C)CC3)cc2n2c(-c3ccccc3Cl)nnc12` [Compound B-157]: the IC50 in assay [1] was 282 nM; in assay [2] it was 57.5 nM.

In the case of `Cc1nc2ccc(Oc3ccncc3)cc2n2c(-c3ccccc3Cl)nnc12` [Compound B-30, 1-(2-Chlorophenyl)-4-methyl-8-(pyridin-4-yloxy)[1,2,4]triazolo[4,3-a]quinoxaline], the IC50 in assay [1] was 24.5 nM; in assay [2], 5.75 nM.

Take `Cc1nc2ccc(CN3CCOCC3)cc2n2c(-c3cncc(OCCCF)c3)nnc12` [Compound B-196]: the IC50 is 8710 nM in assay [1] and 64.6 nM in assay [2].

On to `Cc1nc2ccc(C(N3CCOCC3)C(F)(F)F)cc2n2c(-c3ccccc3Cl)nnc12` (centres unmarked) [Compound B-22, 1-(2-Chlorophenyl)-4-methyl-8-(2,2,2-trifluoro-1-morpholin-4-ylethyl) [1,2,4]triazolo[4,3-a]quinoxaline], for which the IC50 in assay [1] was 89.1 nM; in assay [2], 7.76 nM.

In the case of `CCOCc1cncc(-c2nnc3c(C)nc4ccc(CN(C)C)cc4n23)c1` [Compound B-212], the IC50 in assay [1] is 6170 nM; in assay [2] it was 355 nM.

Take `Cc1nc2ccc(CN3CCC(O)CC3)cc2n2c(-c3cc(OC(C)C)ccc3Cl)nnc12` [Compound B-136]: the IC50 in assay [1] is 1260 nM; in assay [2] it was 31.6 nM.

For `CCNC(=O)c1ccc2c(c1)nc(C)c1nnc(-c3cccnc3OC)n12` [Compound B-180], the IC50 was 1780 nM in assay [1] and 204 nM in assay [2].

For the molecule `CCNC(=O)c1ccc2nc(C)c3nnc(-c4ccc(C)nc4)n3c2c1` [Compound B-182], the IC50 in assay [1] is 4170 nM; in assay [2] it was 240 nM.

Consider `Cc1nc2ccc(C(=O)NCc3cc(F)ccn3)cc2n2c(-c3ccccc3Cl)nnc12` [Compound B-31], for which the IC50 in assay [1] was 8.13 nM; in assay [2], 0.204 nM.

Take `COc1cncc(-c2nnc3c(C)nc4ccc(Br)cc4n23)c1` [Compound B-124]: the IC50 in assay [1] is 355 nM; in assay [2], 27.5 nM.

As for `Cc1nc2ccc(Br)cc2n2c(-c3cc(OC(C)C)ccc3Cl)nnc12` [Compound B-100], the IC50 was 1230 nM in assay [1] and 14.8 nM in assay [2].

On to `Cc1cncc(-c2nnc3c(C)nc4ccc(Br)cc4n23)c1` [Compound B-154], for which the values for the IC50 in assay [1] and in assay [2] were 380 nM and 52.5 nM, respectively.

Consider `Cc1nc2ccc(CNc3cccnc3)cc2n2c(-c3cc(OC(C)C)ccc3Cl)nnc12` [Compound B-133], for which the IC50 in assay [1] was 1230 nM; in assay [2], 30.2 nM.

On to `Cc1nc2ccc(N3CCN(C)CC3)cc2n2c(-c3cc(OC(C)C)ccc3Cl)nnc12` [Compound B-115], for which the IC50 in assay [1] was 1120 nM; in assay [2], 24.5 nM.

As to `CCCOc1cncc(-c2nnc3c(C)nc4ccc(CNC5CCC5)cc4n23)c1` [Compound B-209], the IC50 was greater than 10000 nM in assay [1] and 302 nM in assay [2].

Consider `CCCCOc1ccc(Cl)c(-c2nnc3c(C)nc4ccc(CNCC5CC5)cc4n23)c1` [Compound B-152], for which the IC50 in assay [1] is 3890 nM; in assay [2], 50.1 nM.

For the molecule `Cc1nc2ccc(CO)cc2n2c(-c3ccccc3)nnc12` [Compound B-29, (4-Methyl-1-phenyl[1,2,4]triazolo[4,3-a]quinoxalin-8-yl)methanol], the values for the IC50 in assay [1] and in assay [2] were 380 nM and 44.7 nM, respectively.

As for `Cc1nc2ccc(Br)cc2n2c(-c3ccccc3OC(F)(F)F)nnc12` [Compound B-159], the results for the IC50 in assay [1] and in assay [2] were 347 nM and 60.3 nM, respectively.

For `Cc1nc2ccc(Br)cc2n2c(-c3cncc(Cl)c3)nnc12` [Compound B-171], the values for the IC50 in assay [1] and in assay [2] were 741 nM and 117 nM, respectively.

Take `COc1cncc(-c2nnc3c(C)nc4ccc(OC(F)(F)F)cc4n23)c1` [Compound B-165]: the IC50 is 501 nM in assay [1] and 81.3 nM in assay [2].

`Cc1nc2ccc(OCCc3cccnc3)cc2n2c(-c3cc(OC(C)C)ccc3Cl)nnc12` [Compound B-146]: the IC50 in assay [1] was 1020 nM; in assay [2], 40.7 nM.

For `Cc1nc2ccccc2n2c(-c3cncc(Cl)c3)nnc12` [Compound B-183], the IC50 in assay [2] is 316 nM.

Consider `CCNC(=O)c1ccc2nc(C)c3nnc(-c4ccccc4Cl)n3c2c1` [Compound B-10, 1-(2-Chlorophenyl)-N-ethyl-4-methyl[1,2,4]triazolo[4,3-a]quinoxaline-8-carboxamide], for which, in assay [3], the PO Dose at Max Effect was 2.5 mg/kg, the “PO Max effect (cumulative agitation score over 60 min)” value came to 21 and the PO LAD (lowest active dose) was greater than 2.5 mg/kg. In assay [1] (setting [4]), the IC50 is 21.4 nM.

As to `CCOc1ccc(Cl)c(-c2nnc3c(C)nc4ccc(CN(C)C)cc4n23)c1` [Compound B-142], in assay [3], the SC Dose at max effect was 10 mg/kg, the “SC Max effect (cumulative agitation score over 60 min)” value is reported as 22 and the SC LAD (lowest active dose) is greater than 10 mg/kg. Moreover, the IC50 in assay [1] was 316 nM.

Take `CCCOc1ccc(Cl)c(-c2nnc3c(C)nc4ccc(CN5CCOCC5)cc4n23)c1` [Compound B-72]: in assay [3], the SC Dose at max effect stood at 10 mg/kg, the “SC Max effect (cumulative agitation score over 60 min)” value is recorded as 23 and the SC LAD (lowest active dose) was greater than 10 mg/kg. The “PIC50 PDE10” value in assay [1] (setting [4]) is recorded as 6.49.

Turning to `Cc1nc2ccc(Br)cc2n2c(-c3ccccc3Cl)nnc12` [Compound B-3a, 8-Bromo-1-(2-chlorophenyl)-4-methyl[1,2,4]triazolo[4,3-a]quinoxaline], in assay [3], the PO Dose at Max Effect is 10 mg/kg, the “PO Max effect (cumulative agitation score over 60 min)” value stood at 22 and the PO LAD (lowest active dose) is greater than 10 mg/kg. Besides, the IC50 in assay [1] (setting [4]) is 43.7 nM.

In the case of `Cc1cncc(-c2nnc3c(C)nc4ccccc4n23)c1` [Compound B-177], the IC50 in assay [2] is 162 nM.

In the case of `Cc1nc2ccc(C(=O)NCc3ccccc3)cc2n2c(-c3ccccc3)nnc12` [Compound B-9, N-Benzyl-4-methyl-1-phenyl[1,2,4]triazolo[4,3-a]quinoxaline-8-carboxamide], in assay [3], the PO Dose at Max Effect was 2.5 mg/kg, the “PO Max effect (cumulative agitation score over 60 min)” value is on record as 22 and the PO LAD (lowest active dose) was greater than 2.5 mg/kg. Moreover, the IC50 in assay [1] was 41.7 nM.

On to `Cc1ncccc1-c1nnc2c(C)nc3ccccc3n12` [Compound B-174], for which, in assay [2], the IC50 was 138 nM.

Take `Cc1nc2ccc(CN3CCOCC3)cc2n2c(-c3ccc(F)cc3Cl)nnc12` [Compound B-82]: in assay [3], the SC Dose at max effect was determined as 10 mg/kg, the “SC Max effect (cumulative agitation score over 60 min)” value is 9 and the SC LAD (lowest active dose) is 2.5 mg/kg. In assay [1], the IC50 was 85.1 nM.

In the case of `CCNC(=O)c1ccc2nc(C)c3nnc(-c4ccccc4)n3c2c1` [Compound B-65], in assay [3], the PO Dose at Max Effect stood at 10 mg/kg, the “PO Max effect (cumulative agitation score over 60 min)” value came to 21 and the PO LAD (lowest active dose) was greater than 10 mg/kg. Also, the IC50 in assay [1] is 251 nM.

As to `CCOc1ccc(Cl)c(-c2nnc3c(C)nc4ccc(CN5CCOCC5)cc4n23)c1` [Compound B-70], in assay [3], the SC Dose at max effect amounted to 10 mg/kg, the “SC Max effect (cumulative agitation score over 60 min)” value is on record as 24 and the SC LAD (lowest active dose) is greater than 10 mg/kg. Also, in assay [1] (setting [4]), the “PIC50 PDE10” value amounted to 6.58.

For the molecule `Cc1nc2ccc(C(=O)NCCN3CCOCC3)cc2n2c(-c3ccccc3Cl)nnc12` [Compound B-36], in assay [3], the SC Dose at max effect worked out at 10 mg/kg, the “SC Max effect (cumulative agitation score over 60 min)” value was 21 and the SC LAD (lowest active dose) is greater than 10 mg/kg. For the same molecule, in assay [1], the IC50 was 11.2 nM.

Turning to `CCN(CC)CCNC(=O)c1ccc2nc(C)c3nnc(-c4ccccc4Cl)n3c2c1` [Compound B-41], in assay [3], the SC Dose at max effect came to 10 mg/kg, the “SC Max effect (cumulative agitation score over 60 min)” value was determined as 22 and the SC LAD (lowest active dose) is greater than 10 mg/kg. Moreover, the IC50 in assay [1] was 44.7 nM.

Regarding `COc1cncc(-c2nnc3c(C)nc4ccc(CN5CCOCC5)cc4n23)c1` [Compound B-91], in assay [3], the SC Dose at max effect was determined as 10 mg/kg, the “SC Max effect (cumulative agitation score over 60 min)” value is given as 21 and the SC LAD (lowest active dose) is greater than 10 mg/kg. Also, the “PIC50 PDE10” value in assay [1] (setting [4]) turned out to be 6.57.
